Assay results reported in PubChem BioAssay AID2060891 (Molecular Pharmacology Branch, DTP, NCI, 2025).
“And” between values parts separate entries of the source, which are not always exact repeats. Equal entries are not always repeated.

Tested on: K98450-129-R-PDC complex spheroid growth, percent test/control
Experiment: Anticancer human tumor K98450-129-R-PDC patient-derived colon adenocarcinoma cell line growth inhibition [RAS]
Conditions: for viability, T/C: stronger effect = lower value; active = viability on the fitted dose curve at most 10% of control; inactive = the rest
Method in brief: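 Agents were tested in combination matrices in half-log decrements from a top concentration at or near clinical Cmax (10 microM if undetermined). Targets were multi-cell spheroids of tumour lines plus HUVEC and MSC stromal cells.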
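Note: spheroids exposed to agents for seven days before the viability readout.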
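Throughout, for viability, T/C: luminescence used as a proxy for viable cell amount.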

C[C@@H](NC(=O)c1ncnc(N)c1Cl)c1ncc(C(=O)Nc2cc(C(F)(F)F)c(Cl)cn2)s1 + C#Cc1c(F)ccc2cc(O)cc(-c3ncc4c(N5CC6CCC(C5)N6)nc(OCC56CCCN5CC(F)C6)nc4c3F)c12
inactive: viability, T/C (second compound 0.0316 µM, first compound 0.0316 µM) 114% | viability, T/C (second compound 0.0316 µM, first compound 0.1 µM) 117% | viability, T/C (second compound 0.0316 µM, first compound 0.316 µM) 118% | viability, T/C (second compound 0.0316 µM, first compound 1 µM) 126% | viability, T/C (second compound 0.0316 µM, first compound 3.16 µM) 129% | viability, T/C (second compound 0.0316 µM, first compound 10 µM) 103% | viability, T/C (second compound 0.1 µM, first compound 0.0316 µM) 115% | viability, T/C (second compound 0.1 µM, first compound 0.1 µM) 126% | viability, T/C (second compound 0.1 µM, first compound 0.316 µM) 130% | viability, T/C (second compound 0.1 µM, first compound 1 µM) 127% | viability, T/C (second compound 0.1 µM, first compound 3.16 µM) 128% | viability, T/C (second compound 0.1 µM, first compound 10 µM) 106% | viability, T/C (second compound 0.316 µM, first compound 0.0316 µM) 112% | viability, T/C (second compound 0.316 µM, first compound 0.1 µM) 121% | viability, T/C (second compound 0.316 µM, first compound 0.316 µM) 120% | viability, T/C (second compound 0.316 µM, first compound 1 µM) 127% | viability, T/C (second compound 0.316 µM, first compound 3.16 µM) 130% | viability, T/C (second compound 0.316 µM, first compound 10 µM) 106% | viability, T/C (second compound 1 µM, first compound 0.0316 µM) 114% | viability, T/C (second compound 1 µM, first compound 0.1 µM) 115% | viability, T/C (second compound 1 µM, first compound 0.316 µM) 122% | viability, T/C (second compound 1 µM, first compound 1 µM) 112% | viability, T/C (second compound 1 µM, first compound 3.16 µM) 126% | viability, T/C (second compound 1 µM, first compound 10 µM) 102% | viability, T/C (second compound 3.16 µM, first compound 0.0316 µM) 100% | viability, T/C (second compound 3.16 µM, first compound 0.1 µM) 108% | viability, T/C (second compound 3.16 µM, first compound 0.316 µM) 115% | viability, T/C (second compound 3.16 µM, first compound 1 µM) 115% | viability, T/C (second compound 3.16 µM, first compound 3.16 µM) 114% | viability, T/C (second compound 3.16 µM, first compound 10 µM) 92.7% | viability, T/C (second compound 10 µM, first compound 0.0316 µM) 95.8% | viability, T/C (second compound 10 µM, first compound 0.1 µM) 108% | viability, T/C (second compound 10 µM, first compound 0.316 µM) 114% | viability, T/C (second compound 10 µM, first compound 1 µM) 100% | viability, T/C (second compound 10 µM, first compound 3.16 µM) 111% | viability, T/C (second compound 10 µM, first compound 10 µM) 86.2%
> 10 µM: IC50 (curve of first compound, second compound 0.0316 µM) | IC50 (curve of first compound, second compound 0.1 µM) | IC50 (curve of first compound, second compound 0.316 µM) | IC50 (curve of first compound, second compound 1 µM) | IC50 (curve of first compound, second compound 3.16 µM) | IC50 (curve of first compound, second compound 10 µM)

C[C@@H](NC(=O)c1ncnc(N)c1Cl)c1ncc(C(=O)Nc2cc(C(F)(F)F)c(Cl)cn2)s1 + CCn1c(-c2cccnc2C(C)OC)c2c3cc(ccc31)N1CCOC(CC(NC(=O)C(C(C)C)N(C)C(=O)C3(F)CCN(C(=O)C#CC(C)(C)N(C)C)CC3)C(=O)N3CCCC(N3)C(=O)OCC(C)(C)C2)C1
inactive: viability, T/C (second compound 0.000949 µM, first compound 0.0316 µM) 87.9% | viability, T/C (second compound 0.000949 µM, first compound 0.1 µM) 87.2% | viability, T/C (second compound 0.000949 µM, first compound 0.316 µM) 87% | viability, T/C (second compound 0.000949 µM, first compound 1 µM) 70.2% | viability, T/C (second compound 0.000949 µM, first compound 3.16 µM) 54.4% | viability, T/C (second compound 0.000949 µM, first compound 10 µM) 61.5% | viability, T/C (second compound 0.003 µM, first compound 0.0316 µM) 57.9% | viability, T/C (second compound 0.003 µM, first compound 0.1 µM) 64.3% | viability, T/C (second compound 0.003 µM, first compound 0.316 µM) 63.5% | viability, T/C (second compound 0.003 µM, first compound 1 µM) 61.6% | viability, T/C (second compound 0.003 µM, first compound 3.16 µM) 66.2% | viability, T/C (second compound 0.003 µM, first compound 10 µM) 53.7% | viability, T/C (second compound 0.00949 µM, first compound 0.0316 µM) 57.8% | viability, T/C (second compound 0.00949 µM, first compound 0.1 µM) 55% | viability, T/C (second compound 0.00949 µM, first compound 0.316 µM) 54.5% | viability, T/C (second compound 0.00949 µM, first compound 1 µM) 55.3% | viability, T/C (second compound 0.00949 µM, first compound 3.16 µM) 59.2% | viability, T/C (second compound 0.00949 µM, first compound 10 µM) 48.6% | viability, T/C (second compound 0.03 µM, first compound 0.0316 µM) 40.3% | viability, T/C (second compound 0.03 µM, first compound 0.1 µM) 44.5% | viability, T/C (second compound 0.03 µM, first compound 0.316 µM) 53.6% | viability, T/C (second compound 0.03 µM, first compound 1 µM) 61.6% | viability, T/C (second compound 0.03 µM, first compound 3.16 µM) 54.1% | viability, T/C (second compound 0.03 µM, first compound 10 µM) 46.9% | viability, T/C (second compound 0.0949 µM, first compound 0.0316 µM) 39.2% | viability, T/C (second compound 0.0949 µM, first compound 0.1 µM) 40.5% | viability, T/C (second compound 0.0949 µM, first compound 0.316 µM) 53.3% | viability, T/C (second compound 0.0949 µM, first compound 1 µM) 55% | viability, T/C (second compound 0.0949 µM, first compound 3.16 µM) 62.3% | viability, T/C (second compound 0.0949 µM, first compound 10 µM) 49.9% | viability, T/C (second compound 0.3 µM, first compound 0.0316 µM) 32.4% | viability, T/C (second compound 0.3 µM, first compound 0.1 µM) 43.9% | viability, T/C (second compound 0.3 µM, first compound 0.316 µM) 35.2% | viability, T/C (second compound 0.3 µM, first compound 1 µM) 53.7% | viability, T/C (second compound 0.3 µM, first compound 3.16 µM) 56.3% | viability, T/C (second compound 0.3 µM, first compound 10 µM) 39.3%
> 10 µM: IC50 (curve of first compound, second compound 0.000949 µM) | IC50 (curve of first compound, second compound 0.003 µM) | IC50 (curve of first compound, second compound 0.00949 µM)
< 0.0316 µM: IC50 (curve of first compound, second compound 0.03 µM) | IC50 (curve of first compound, second compound 0.0949 µM) | IC50 (curve of first compound, second compound 0.3 µM)

CCC(CC)c1cc(NC2CCC(N)C2)n2nccc2n1 (stereo not given)
inactive: viability, T/C (compound 0.0316 µM) 99.1% [middle of 4 runs] | viability, T/C (compound 0.316 µM) 99.2% [middle of 4 runs] | viability, T/C (compound 1 µM) 102% (2×) and 98% and 94% | viability, T/C (compound 3.16 µM) 90.9% [middle of 4 runs] | viability, T/C (compound 10 µM) 17.7% [middle of 4 runs]
5.89 µM [middle of 4 runs]: IC50 (curve of compound)
